Laboratory results reported in patent US20180258381A1, “BIO-LAMINA BIOREACTORS AND METHODS OF MAKING AND USING THE SAME” (Oregon State University, priority 2015, published 2018).

Assays:
MDH = MDH activity reactivity assay (methanol SOUR), inhibitor trials; format: cell-based, M. trichosporium OB3b; settings: for selective inhibition of MDH activity versus MMO: salts tested on MMO and MDH activity
Description: The procedure for measuring methanol dehydrogenase (MDH) activity by measuring the specific oxygen uptake rate (SOUR) has been tested on M. trichosporium OB3b cultures grown both in batch and in the chemostat. M. trichosporium OB3b cells were harvested using centrifugation. The supernatant was poured off and the cells were re-suspended in fresh media lacking a carbon source. Phosphate buffer solution was added to a sample chamber in which dissolved oxygen (DO) was measure with a DO probe. When the DO of the solution stabilized, the re-suspended cells were added to the sample chamber to measure baseline oxygen uptake by the cells without a carbon food source present. Methanol was then added to test for MDH activity. The difference in the oxygen uptake rates illustrates the MDH activity of the culture.
(§1) Metabolic activity test methods have been developed to monitor specific activities in M. trichosporium OB3b cultures. A naphthalene oxidation assay was used to determine if sMMO is being expressed. An ethylene to ethylene oxide reaction assay and a methane oxidation assay was used to quantify MMO activity, and a methanol oxidation assay was used to estimate MDH activity. Concurrent batch metabolic tests can be conducted to investigate methanol inhibition of methane oxidation, cyclopropane to cyclopropanol conversion and concurrent/subsequent cyclopropanol inhibition of MDH activity, the effect of cyclopropanol inhibition on growth yield, and the effects of high oxygen concentration.
(§2) The effect of salts NaCl, NH4Cl and CaCl2 on MMO and MDH activity was evaluated using the reactivity assays described above.

sMMO = biological target: T1, sMMO (Methylosinus trichosporium, UniProt P27353); assay: sMMO activity reactivity assay, inhibitor trials; format: cell-based, M. trichosporium OB3b
T1 construct: endogenous in cells; host or cells: M. trichosporium OB3b whole cells, grown without copper (chemostat or batch)
T1 sequence (P27353 1-526): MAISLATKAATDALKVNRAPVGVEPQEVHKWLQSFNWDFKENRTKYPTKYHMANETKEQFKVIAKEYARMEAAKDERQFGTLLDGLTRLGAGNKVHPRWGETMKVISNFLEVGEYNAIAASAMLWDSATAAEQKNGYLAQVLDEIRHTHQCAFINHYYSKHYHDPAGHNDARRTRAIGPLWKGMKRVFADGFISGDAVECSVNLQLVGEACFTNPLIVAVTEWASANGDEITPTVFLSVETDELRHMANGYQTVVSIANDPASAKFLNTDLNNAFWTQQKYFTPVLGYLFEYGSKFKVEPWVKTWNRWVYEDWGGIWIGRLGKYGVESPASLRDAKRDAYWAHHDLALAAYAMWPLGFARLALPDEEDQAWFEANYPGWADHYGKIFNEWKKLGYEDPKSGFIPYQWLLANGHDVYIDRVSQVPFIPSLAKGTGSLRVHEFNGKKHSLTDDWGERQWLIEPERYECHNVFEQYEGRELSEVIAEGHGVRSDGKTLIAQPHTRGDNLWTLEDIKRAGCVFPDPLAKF
T1 sequence (P27354 1-394 partner): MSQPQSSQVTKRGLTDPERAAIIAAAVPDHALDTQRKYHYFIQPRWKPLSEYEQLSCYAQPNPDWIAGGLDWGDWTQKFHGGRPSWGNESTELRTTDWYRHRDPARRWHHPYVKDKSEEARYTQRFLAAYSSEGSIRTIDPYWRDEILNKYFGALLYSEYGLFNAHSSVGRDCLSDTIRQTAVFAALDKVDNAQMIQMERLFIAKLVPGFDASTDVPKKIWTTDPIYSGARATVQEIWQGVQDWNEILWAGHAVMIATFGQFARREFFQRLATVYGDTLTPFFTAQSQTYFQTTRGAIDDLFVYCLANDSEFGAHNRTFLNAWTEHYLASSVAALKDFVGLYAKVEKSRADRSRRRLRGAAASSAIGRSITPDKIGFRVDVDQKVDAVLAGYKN
T1 sequence (P27355 1-169 partner): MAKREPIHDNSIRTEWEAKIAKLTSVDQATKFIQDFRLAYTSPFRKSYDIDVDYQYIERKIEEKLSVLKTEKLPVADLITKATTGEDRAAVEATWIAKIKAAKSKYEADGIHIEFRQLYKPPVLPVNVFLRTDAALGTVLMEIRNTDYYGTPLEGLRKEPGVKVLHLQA
Description: M. trichosporium OB3b cultures were grown under plus copper (pMMO expressed) or minus copper (sMMO expressed) conditions using chemostat or batch culture conditions. Aliquots of culture (˜100 ml) were harvested by centrifugation, and concentrated 50-fold in fresh media. Pelleting cells in this manner ensured that all residual methane was eliminated, increased ease of measuring protein, and made activity assays as brief as possible. Assays were performed in 30 ml crimp cap reaction vials with 4 ml of media (either +Cu or −Cu) with 10 mM sodium formate. To initiate assays, 100 µl of the 50× cell suspension was added to reaction vials with a plastic syringe. Short descriptions of activity assays follow.
Due to the relative insolubility of methane, large volumes should be added to reaction vials to achieve concentrations in the aqueous phase (Cw) above the concentration of methane where the velocity of methane consumption (V) is equal to 0.5Vmax for minus copper grown M. trichosporium OB3b cultures. These large methane additions make direct measurement of methane consumption in short-term assays unlikely, therefore the accumulation of ethylene oxide (ETO) upon the oxidation of ethylene (ETH) was used as a surrogate measurement. Reaction vials were prepared as described above and 5 ml of ETH added as an overpressure. The appearance of ETO was monitored by gas chromatography evaluation of Cw over the course of 30 minutes (FIG. 39A). Killed cells (boiled) served as a negative control. pMMO is a copper enzyme and can be inhibited by allylthiourea (ATU), while sMMO (an iron enzyme) is insensitive to inhibition by ATU. The ETH to ETO assay described above was repeated with 10 μM ATU to discriminate between sMMO and pMMO activity.
as §1, with “concentration. Once stable operation and baseline metabolic monitoring in the chemostat have been achieved, inhibitor can be added to evaluate chemostat operation under methanol-producing conditions.” for “concentration.”
MMO activity has been measured via both methane (CH4) consumption and ethylene oxide (ETO) production upon oxidation of the non-growth substrate ethylene (ETH, Table 4). While ETO production matches methane consumption for pMMO, ETH is not as good a substrate for sMMO as methane. Nevertheless, the ETO accumulation assay is quick (<30 min) and can be used to screen for activity before starting a larger experiment.
as §2

SMILES	selective inhibition of MDH activity versus MMO (MDH)	Fraction of Activity Remaining, sMMO (sMMO; CaCl2 10 mmol)	Fraction of Activity Remaining, sMMO (sMMO; CaCl2 20 mmol)	Fraction of Activity Remaining, sMMO (sMMO; CaCl2 40 mmol)	Fraction of Activity Remaining, MDH (MDH; CaCl2 10 mmol)	Fraction of Activity Remaining, MDH (MDH; CaCl2 40 mmol)	Fraction of Activity Remaining, MDH (MDH; CaCl2 66 mmol)
Cl.N [NH4Cl]	None of the salts were effective						
[Ca+2].[Cl-].[Cl-] [CaCl2]	None of the salts were effective	0.41	0.29	0.20	0.71	0.45	0.35
[Cl-].[Na+] [NaCl]	None of the salts were effective						
